In patent US20070202116A1, “Treatment of micro-organism infection” (priority 2001, published 2007):

Legend:
EMRSA strains = test: MIC of vancomycin or flucloxacillin with and without Aurograb (Table 3a); assay type: cell-based, S. aureus; settings: Staphylococcus aureus; all EMRSA strains; read-out: MIC of flucloxacillin
Experimental: Strains of MRSA were grown overnight in nutrient broth and diluted to give an inoculum of 1×10^3 cells per mL. […] Cultures were incubated for a further 2 days. The minimum growth-inhibitory concentration (MIC) is defined as the […] concentration of antibiotic at which no bacterial growth occurs and is determined by spectrophotometric evaluation of the lack of turbidity (growth) in culture. MICs were determined in the presence of exogenous Aurograb or in the presence of Aurograb formulation buffer (negative control).
The experiments were also performed using flucloxacillin instead of vancomycin to investigate how the efficacy of penicillin-type […] was affected by Aurograb.

human blood = test: Blood compatibility study (haemolysis)
Experimental: This study was carried out by Biochemical Pharmacology department at Inveresk Research, Scotland, in order to assess the suitability of Aurograb for intravenous administration.
Blood samples were taken from healthy human volunteers, transferred to tubes containing Aurograb, Aurograb vehicle, saponin or saline and incubated at 37° C. for 1 hour. After centrifugation, the amount of haemoglobin in the supernatant was then assessed to determine haemolysis.

Molecule	MIC (EMRSA strains)	Haemolysis classification (ASTM F756-93) (human blood)
Cc1onc(-c2c(F)cccc2Cl)c1C(=O)N[C@@H]1C(=O)N2[C@@H]1SC(C)(C)[C@@H]2C(=O)O [flucloxacillin]	> 256 mg/L	
saponin		severely haemolytic
